We go through 23 compounds from US20170334899A1, “AMINO-SUBSTITUTED ISOTHIAZOLES” (Bayer Pharma Aktiengesellschaft, priority 2014, published 2017).

The target in the test is T1, human kinase Mps-1 (Homo sapiens, UniProt P33981).
T1 construct: N-terminally GST-tagged human full length recombinant Mps-1 kinase; GST (N); purchased Invitrogen, Karslruhe, Germany PV4071
T1 sequence (P33981 1-857): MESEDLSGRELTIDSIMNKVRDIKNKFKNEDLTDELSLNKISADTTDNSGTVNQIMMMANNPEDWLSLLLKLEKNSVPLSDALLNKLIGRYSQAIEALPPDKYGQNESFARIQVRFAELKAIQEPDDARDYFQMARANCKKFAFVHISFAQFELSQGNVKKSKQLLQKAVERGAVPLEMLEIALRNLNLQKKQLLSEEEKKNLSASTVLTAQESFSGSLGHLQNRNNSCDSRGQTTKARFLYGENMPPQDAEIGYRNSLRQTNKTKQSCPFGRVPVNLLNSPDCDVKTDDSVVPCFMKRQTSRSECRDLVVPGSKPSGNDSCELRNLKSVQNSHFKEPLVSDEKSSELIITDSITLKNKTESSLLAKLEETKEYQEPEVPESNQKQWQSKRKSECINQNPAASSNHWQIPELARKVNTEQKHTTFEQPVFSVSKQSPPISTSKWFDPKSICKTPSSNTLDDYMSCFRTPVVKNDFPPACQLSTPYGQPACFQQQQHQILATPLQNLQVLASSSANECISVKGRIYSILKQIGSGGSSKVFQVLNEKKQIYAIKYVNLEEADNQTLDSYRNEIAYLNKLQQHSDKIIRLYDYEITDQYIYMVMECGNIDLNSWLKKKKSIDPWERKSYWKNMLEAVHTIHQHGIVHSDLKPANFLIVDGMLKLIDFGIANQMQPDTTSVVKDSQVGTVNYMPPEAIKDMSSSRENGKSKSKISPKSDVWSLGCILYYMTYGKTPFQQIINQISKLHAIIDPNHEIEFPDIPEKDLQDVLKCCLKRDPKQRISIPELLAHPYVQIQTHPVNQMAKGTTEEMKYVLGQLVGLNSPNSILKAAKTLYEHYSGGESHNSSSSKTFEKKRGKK
Description: Mps-1 kinase assay (TR-FRET). In kind it is biochemical. The settings on record: Mps-1 TR-FRET kinase assay; avg; read-out: Mps1 avg (IC50 [mol/l]). In short, it runs like this:
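Inhibition normalised between uninhibited reaction (0%) and enzyme-free wells (100%), using the blank-corrected TR-FRET 665/620 nm ratio after EDTA stop. Reaction: ~0.5 nM GST-Mps-1 full length, 10 μM ATP, 1 μM biotin-peptide, 60 min at 22 °C, after 15 min compound pre-binding, pH 7.7.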
A general note: In TR-FRET formats the signal depends on donor and acceptor labels being close together.
As for `Cc1nsc(Nc2cncc(C(F)(F)F)n2)c1C(=O)Nc1ccc(C(=O)NCCN2CCCC(F)C2)cc1` (centres unmarked) [Example 155, N-(4-{[2-(3-fluoropiperidin-1-yl)ethyl]carbamoyl}phenyl)-3-methyl-5-{[6-(trifluoromethyl)pyrazin-2-yl]amino}-1,2-thiazole-4-carboxamide], the IC50 came to 18 µM. Under `COc1ccc(NC(=O)c2c(C)nsc2Nc2ccc(C#N)cn2)c(N2CCOCC2)n1` [Example 173, 5-[(5-cyanopyridin-2-yl)amino]-N-[6-methoxy-2-(morpholin-4-yl)pyridin-3-yl]-3-methyl-1,2-thiazole-4-carboxamide] stands greater than 20 µM; under `Cc1nsc(Nc2cnc(C(F)(F)F)cn2)c1C(=O)Nc1ccc(C(=O)OC(C)(C)C)cc1` [Example 96, tert-Butyl 4-{[(3-methyl-5-{[5-(trifluoromethyl)pyrazin-2-yl]amino}-1,2-thiazol-4-yl)carbonyl]amino}benzoate], no less than 20 µM. Consider `Cc1nsc(Nc2cnc(C(F)(F)F)cn2)c1C(=O)Nc1ccc(OC2CCNCC2)nc1` [Example 6, 3-Methyl-N-[6-(piperidin-4-yloxy)pyridin-3-yl]-5-{[5-(trifluoromethyl)pyrazin-2-yl]amino}-1,2-thiazole-4-carboxamide], for which the IC50 was no less than 20 µM.

As to `CNS(=O)(=O)c1ccc(NC(=O)c2c(C)nsc2Nc2cnc3ccccc3n2)cc1` [Example 111, 3-Methyl-N-[4-(methylsulfannoyl)phenyl]-5-(quinoxalin-2-ylamino)-1,2-thiazole-4-carboxamide], the IC50 was no less than 20 µM. Turning to `Cc1nsc(Nc2cnc(C(F)(F)F)cn2)c1C(=O)Nc1ccc(O[C@H]2CCN(CC(F)F)C[C@H]2F)nc1` [Example 144, N-(6-{[(3R,4S)-1-(2,2-difluoroethyl)-3-fluoropiperidin-4-yl]oxy}pyridin-3-yl)-3-methyl-5-{[5-(trifluoromethyl)pyrazin-2-yl]amino}-1,2-thiazole-4-carboxamide], the IC50 is greater than 20 µM. For `Cc1nsc(Nc2cncc(C(F)(F)F)n2)c1C(=O)Nc1ccc(C(=O)NC2CCN(CC(F)(F)F)CC2)cc1` [Example 167, 3-methyl-N-(4-{[1-(2,2,2-trifluoroethyl)piperidin-4-yl]carbamoyl}phenyl)-5-{[6-(trifluoromethyl)pyrazin-2-yl]amino}-1,2-thiazole-4-carboxamide], the IC50 is greater than 20 µM. In the case of `Cc1nsc(Nc2cnc(C(F)(F)F)cn2)c1C(=O)Nc1ccc(OC[C@@H]2CCN(CCC(F)(F)F)C2)nc1` [Example 129, 3-Methyl-5-{[5-(trifluoromethyl)pyrazin-2-yl]amino}-N-(6-{[(3R)-1-(3,3,3-trifluoropropyl)pyrrolidin-3-yl]methoxy}pyridin-3-yl)-1,2-thiazole-4-carboxamide] it was greater than 20 µM; in that of `Cc1nsc(Nc2cnc3ccccc3n2)c1C(=O)Nc1ccc(C(=O)N2CCN(CC(F)F)CC2)cc1` [Example 157, N-(4-{[4-(2,2-difluoroethyl)piperazin-1-yl]carbonyl}phenyl)-3-methyl-5-(quinoxalin-2-ylamino)-1,2-thiazole-4-carboxamide], greater than 20 µM. Under `Cc1nsc(Nc2cnc3ccccc3n2)c1C(=O)Nc1cccc(C(=O)N2CCCC2)c1` [Example 113, 3-Methyl-N-[3-(pyrrolidin-1-ylcarbonyl)phenyl]-5-(quinoxalin-2-ylamino)-1,2-thiazole-4-carboxamide] stands 12 µM; under `Cc1nsc(Nc2cnc3ccccc3n2)c1C(=O)Nc1ccc(N2CCOCC2)nc1` [Example 169, 3-methyl-N-[6-(morpholin-4-yl)pyridin-3-yl]-5-(quinoxalin-2-ylamino)-1,2-thiazole-4-carboxamide], greater than 20 µM; under `Cc1nsc(Nc2cnc3ccccc3n2)c1C(=O)Nc1cccc(C(=O)N[C@H](C(=O)O)[C@@H](C)O)c1` [Example 105, N-[3-({[3-methyl-5-(quinoxalin-2-ylamino)-1,2-thiazol-4-yl]carbonyl}amino)-benzoyl]threonine], 6.5 µM. Under `Cc1nsc(Nc2cnc(C(F)(F)F)cn2)c1C(=O)Nc1ccc(OC2CCN(C(C)C)CC2)nc1` [Example 160, N-{6-[(1-isopropylpiperidin-4-yl)oxy]pyridin-3-yl}-3-methyl-5-{[5-(trifluoromethyl)pyrazin-2-yl]amino}-1,2-thiazole-4-carboxamide] stands greater than 20 µM; under `COC(=O)CNC(=O)c1cccc(NC(=O)c2c(C)nsc2Nc2cnc3ccccc3n2)c1` [Example 100, Methyl N-[3-({[3-methyl-5-(quinoxalin-2-ylamino)-1,2-thiazol-4-yl]carbonyl}amino)-benzoyl]glycinate], 12 µM. For the compound `Cc1nsc(Nc2cnc(C(F)(F)F)cn2)c1C(=O)Nc1ccc(OC2CCN(CCF)CC2)c(F)c1` [Example 162, N-(3-fluoro-4-{[1-(2-fluoroethyl)piperidin-4-yl]oxy}phenyl)-3-methyl-5-{[5-(trifluoromethyl)pyrazin-2-yl]amino}-1,2-thiazole-4-carboxamide], the IC50 is greater than 20 µM.

Regarding `Cc1nsc(Nc2ccc(C#N)cn2)c1C(=O)Nc1ccc(Oc2cccc(C(F)(F)F)c2)nc1` [Example 118, 5-[(5-Cyanopyridin-2-yl)amino]-3-methyl-N-{6-[3-(trifluoromethyl)phenoxy]pyridin-3-yl}-1,2-thiazole-4-carboxamide], the IC50 is no less than 20 µM. Turning to `Cc1nsc(Nc2cnc(C(F)(F)F)cn2)c1C(=O)Nc1ccc(C(=O)NC2CCN(CC(F)(F)F)CC2)cc1` [Example 165, 3-methyl-N-(4-{[1-(2,2,2-trifluoroethyl)piperidin-4-yl]carbamoyl}phenyl)-5-{[5-(trifluoromethyl)pyrazin-2-yl]amino}-1,2-thiazole-4-carboxamide], the IC50 was greater than 20 µM. On to `Cc1nsc(Nc2cnc(C(F)(F)F)cn2)c1C(=O)Nc1ccc(OC2CCN(CC(F)(F)F)CC2)c(F)c1` [Example 163, N-(3-fluoro-4-{[1-(2,2,2-trifluoroethyl)piperidin-4-yl]oxy}phenyl)-3-methyl-5-{[5-(trifluoromethyl)pyrazin-2-yl]amino}-1,2-thiazole-4-carboxamide], for which the IC50 was greater than 20 µM.

On to `Cc1nsc(Nc2cnc3ccccc3n2)c1C(=O)Nc1cccc(-c2nc(C(C)(C)C)no2)c1` [Example 108, N-[3-(3-tert-Butyl-1,2,4-oxadiazol-5-yl)phenyl]-3-methyl-5-(quinoxalin-2-ylamino)-1,2-thiazole-4-carboxamide], for which the IC50 was no less than 20 µM. In the case of `Cc1nsc(Nc2cnc(C(F)(F)F)cn2)c1C(=O)Nc1ccc(OCC2CCN(CC(F)(F)F)C2)nc1` (centres unmarked) [Example 123, 3-Methyl-N-(6-{[1-(2,2,2-trifluoroethyl)pyrrolidin-3-yl]methoxy}pyridin-3-yl)-5-{[5-(trifluoromethyl)pyrazin-2-yl]amino}-1,2-thiazole-4-carboxamide] it was no less than 20 µM; in that of `Cc1nsc(Nc2cnc(C(F)(F)F)cn2)c1C(=O)Nc1ccc(F)c(C(N)=O)c1` [Example 151, N-(3-carbamoyl-4-fluorophenyl)-3-methyl-5-{[5-(trifluoromethyl)pyrazin-2-yl]amino}-1,2-thiazole-4-carboxamide], greater than 20 µM; in that of `Cc1nsc(Nc2cnc3ccccc3n2)c1C(=O)Nc1ccc(C(=O)NCCN2CCCC(F)(F)C2)cc1` [Example 156, N-(4-{[2-(3,3-difluoropiperidin-1-yl)ethyl]carbamoyl}phenyl)-3-methyl-5-(quinoxalin-2-ylamino)-1,2-thiazole-4-carboxamide], greater than 20 µM. As to `Cc1nsc(Nc2cnc(C(F)(F)F)cn2)c1C(=O)Nc1ccc(OCC2CCN(CCC(F)(F)F)C2)nc1` (centres unmarked) [Example 124, 3-methyl-5-{[5-(trifluoromethyl)pyrazin-2-yl]amino}-N-(6-{[1-(3,3,3-trifluoropropyl)pyrrolidin-3-yl]methoxy}pyridin-3-yl)-1,2-thiazole-4-carboxamide], the IC50 is no less than 20 µM.
